# Assay results from patent US10266526B2, “Substituted 1,2,3-triazoles as SMYD inhibitors for treating cancer” (EPIZYME, INC., priority 2014, dated 2019).
# Molecular target: SMYD2 (Homo sapiens (Human), UniProt Q9NRG4)
# Test: SMYD2 biochemical assay (SMYD2 enzyme assay on peptide substrate, 3H-SAM Flashplate)
# Details: read-out: SMYD2 Biochem IC50; IC50 values are an average of n = 1 to n = 50
# Excerpt: S-adenosylmethionine (SAM), S-adenosylhomocysteine (SAH), bicine, Tween20, dimethylsulfoxide (DMSO), bovine skin gelatin (BSG), and Tris(2-carboxyethyl)phosphine hydrochloride (TCEP) were purchased from Sigma-Aldrich at the highest level of purity possible. ^3H-SAM was purchase from American Radiolabeled Chemicals with a specific activity of 80 Ci/mmol. 384-well streptavidin Flashplates were purchased from PerkinElmer.
# The sequence was [sequence](K-Biot)-amide.
# Production of Recombinant SMYD2 Enzymes for Biochemical Enzyme Activity Assays
# Full length SMYD2 (NP_064582.2) was cloned into a pFastbac-Htb-lic vector with an N-terminal His6 tag and FLAG tag, preceded by a TEV protease cleavage site. The protein was expressed in Sf9 insect cells. Cells were resuspended in lysis buffer (25 mM HEPES-NaOH, pH 7.5, 200 mM NaCl, 5% glycerol, and 5 mM (3-ME) and lysed by sonication. The protein was purified by Ni-NTA (Qiagen), followed by TEV cleavage to remove the His6 tag, subtractive Ni-NTA (Qiagen), and gel filtration chromatography using an S200 column (GE Healthcare). Purified protein was stored in 20 mM Tris-HCl, pH 8.0, 100 mM NaCl, and 1 mM TCEP.
# General Procedure for SMYD2 Enzyme Assays on Peptide Substrates
# The assays were all performed in a buffer consisting of 20 mM Bicine (pH=7.6), 1 mM TCEP, 0.005% Bovine Skin Gelatin, and 0.002% Tween20, prepared on the day of use. […] DMSO (1 ul) was added to Columns 11, 12, 23, 24, rows A-H for the maximum signal control and 1 ul of SAH, a known product and inhibitor of SMYD2, was added to columns 11, 12, 23, 24, rows I-P for the minimum signal control. A cocktail (40 ul) containing the SMYD2 enzyme was added by Multidrop Combi (Thermo-Fisher). The compounds were allowed to incubate with SMYD2 for 30 min at room temperature, then a cocktail (10 ul) containing ^3H-SAM and peptide was added to initiate the reaction (final volume=51 ul). […] The assays were stopped by the addition of non-radioactive SAM (10 ul) to a final concentration of 600 uM, which dilutes the ^3H-SAM to a level where its incorporation into the peptide substrate is no longer detectable. 50 ul of the reaction in the 384-well polypropylene plate was then transferred to a 384-well Flashplate and the biotinylated peptides were allowed to bind to the streptavidin surface for at least 1 hour before being washed three times with 0.1% Tween20 in a Biotek ELx405 plate washer. The plates were then read in a PerkinElmer TopCount plate reader to measure the quantity of ^3H-labeled peptide bound to the Flashplate surface, measured as disintegrations per minute (dpm) or alternatively, referred to as counts per minute (cpm).
# Where dpm=disintegrations per minute, cmpd=signal in assay well, and min and max are the respective minimum and maximum signal controls.
# Where top and bottom are the normally allowed to float, but may be fixed at 100 or 0 respectively in a 3-parameter fit. The Hill Coefficient normally allowed to float but may also be fixed at 1 in a 3-parameter fit. I is the compound concentration.
# Chain of SMYD2 (Q9NRG4 whole entry): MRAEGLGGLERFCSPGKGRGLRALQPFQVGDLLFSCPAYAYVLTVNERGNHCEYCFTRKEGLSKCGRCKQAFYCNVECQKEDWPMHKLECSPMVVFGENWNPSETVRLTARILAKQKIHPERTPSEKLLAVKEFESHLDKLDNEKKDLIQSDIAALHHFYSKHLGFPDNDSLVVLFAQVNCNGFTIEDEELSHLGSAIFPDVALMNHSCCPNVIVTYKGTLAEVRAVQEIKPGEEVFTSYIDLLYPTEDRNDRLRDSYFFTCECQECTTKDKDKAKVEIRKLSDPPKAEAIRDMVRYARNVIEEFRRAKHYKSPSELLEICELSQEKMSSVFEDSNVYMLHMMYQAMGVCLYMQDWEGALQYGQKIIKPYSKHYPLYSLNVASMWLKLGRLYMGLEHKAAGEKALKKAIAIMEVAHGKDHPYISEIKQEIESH
row,SMILES,IC50
1,"CC(c1ccc2c(c1)OCO2)N1CC(NC(=O)c2cn(C3CC3)nn2)C1 (stereo not shown) [compound 691, N-{1-[1-(2H-1,3-benzodioxol-5-yl)ethyl]azetidin-3-yl}-1-cyclopropyl-1H-1,2,3-triazole-4-carboxamide]",0.807 µM
2,"CC(c1ccc(OCc2ccccc2)cc1)N1CC(NC(=O)c2cn(C3CC3)nn2)C1 (stereo not shown) [compound 692, N-(1-{1-[4-(benzyloxy)phenyl]ethyl}azetidin-3-yl)-1-cyclopropyl-1H-1,2,3-triazole-4-carboxamide]",0.172 µM
3,"CC(c1ccc(OCc2ccccc2)cc1)N1CC(NC(=O)c2cn(C3CC3)nn2)C1 (stereo not shown) [compound 693, N-(1-{1-[4-(benzyloxy)phenyl]ethyl}azetidin-3-yl)-1-cyclopropyl-1H-1,2,3-triazole-4-carboxamide]",0.176 µM
4,"CCC(c1ccc(F)cc1)N1CC(NC(=O)c2cn(C3CC3)nn2)C1 (stereo not shown) [compound 694, 1-cyclopropyl-N-{1-[1-(4-fluorophenyl)propyl]azetidin-3-yl}-1H-1,2,3-triazole-4-carboxamide]",0.787 µM
5,"COc1ccc(C(C)N2CC(NC(=O)c3cn(C4CC4)nn3)C2)cc1OC (stereo not shown) [compound 698, 1-cyclopropyl-N-{1-[1-(3,4-dimethoxyphenyl)ethyl]azetidin-3-yl}-1H-1,2,3-triazole-4-carboxamide]",3.69 µM
6,"CCC(c1ccc(C(F)(F)F)cc1)N1CC(NC(=O)c2cn(C3CC3)nn2)C1 (stereo not shown) [compound 700, 1-cyclopropyl-N-(1-{1-[4-(trifluoromethyl)phenyl]propyl}azetidin-3-yl)-1H-1,2,3-triazole-4-carboxamide]",2.67 µM
7,"COCCOc1cccc(CN2CC(NC(=O)c3cn(C4CC4)nn3)C2)c1 [compound 701, 1-cyclopropyl-N-(1-{[3-(2-methoxyethoxy)phenyl]methyl}azetidin-3-yl)-1H-1,2,3-triazole-4-carboxamide]",8.03 µM
8,"COCCOc1cccc(C(C)N2CC(NC(=O)c3cn(C4CC4)nn3)C2)c1 (stereo not shown) [compound 702, 1-cyclopropyl-N-(1-{1-[3-(2-methoxyethoxy)phenyl]ethyl}azetidin-3-yl)-1H-1,2,3-triazole-4-carboxamide]",3.58 µM
9,"CC(C)N1CC(NC(=O)c2cn(CCO)nn2)C1 [compound 703, 1-(2-hydroxyethyl)-N-[1-(propan-2-yl)azetidin-3-yl]-1H-1,2,3-triazole-4-carboxamide]",> 50 µM
10,"CC(c1cccc(OCCO)c1)N1CC(NC(=O)c2cn(C3CC3)nn2)C1 (stereo not shown) [compound 704, 1-cyclopropyl-N-(1-{1-[3-(2-hydroxyethoxy)phenyl]ethyl}azetidin-3-yl)-1H-1,2,3-triazole-4-carboxamide]",0.64 µM
11,"CNCCOc1cccc(C(C)N2CC(NC(=O)c3cn(C4CC4)nn3)C2)c1 (stereo not shown) [compound 705, 1-cyclopropyl-N-[1-(1-{3-[2-(methylamino)ethoxy]phenyl}ethyl)azetidin-3-yl]-1H-1,2,3-triazole-4-carboxamide]",2.04 µM
12,"O=C(NC1CN(CCCO)C1)c1cn(C2CC2)nn1 [compound 707, 1-cyclopropyl-N-[1-(3-hydroxypropyl)azetidin-3-yl]-1H-1,2,3-triazole-4-carboxamide]",1.91 µM
13,"CN(C)CCCN1CC(NC(=O)c2cn(C3CC3)nn2)C1 [compound 708, 1-cyclopropyl-N-{1-[3-(dimethylamino)propyl]azetidin-3-yl}-1H-1,2,3-triazole-4-carboxamide]",> 50 µM
14,"C[C@@H](c1ccccc1)N1CC(NC(=O)c2cn(C3CC3)nn2)C1 [compound 709, 1-cyclopropyl-N-{1-[(1S)-1-phenylethyl]azetidin-3-yl}-1H-1,2,3-triazole-4-carboxamide]",0.377 µM
15,"CC(c1ccc(F)cc1Cl)N1CC(NC(=O)c2cn(C3CC3)nn2)C1 (stereo not shown) [compound 710, N-{1-[1-(2-chloro-4-fluorophenyl)ethyl]azetidin-3-yl}-1-cyclopropyl-1H-1,2,3-triazole-4-carboxamide]",0.341 µM
16,"CCC(c1cccc(F)c1)N1CC(NC(=O)c2cn(C3CC3)nn2)C1 (stereo not shown) [compound 711, 1-cyclopropyl-N-{1-[1-(3-fluorophenyl)propyl]azetidin-3-yl}-1H-1,2,3-triazole-4-carboxamide]",1.01 µM
17,"COc1ccc2c(c1Cl)CCC2N1CC(NC(=O)c2cn(C3CC3)nn2)C1 (stereo not shown) [compound 713, N-[1-(4-chloro-5-methoxy-2,3-dihydro-1H-inden-1-yl)azetidin-3-yl]-1-cyclopropyl-1H-1,2,3-triazole-4-carboxamide]",12.9 µM
18,"CC(c1cc(F)cc(Cl)c1)N1CC(NC(=O)c2cn(C3CC3)nn2)C1 (stereo not shown) [compound 714, N-{1-[1-(3-chloro-5-fluorophenyl)ethyl]azetidin-3-yl}-1-cyclopropyl-1H-1,2,3-triazole-4-carboxamide]",2.13 µM
19,"CC(c1ncccn1)N1CC(NC(=O)c2cn(C3CC3)nn2)C1 (stereo not shown) [compound 715, 1-cyclopropyl-N-{1-[1-(pyrimidin-2-yl)ethyl]azetidin-3-yl}-1H-1,2,3-triazole-4-carboxamide]",1.94 µM
20,"CC(c1nccs1)N1CC(NC(=O)c2cn(C3CC3)nn2)C1 (stereo not shown) [compound 716, 1-cyclopropyl-N-{1-[1-(1,3-thiazol-2-yl)ethyl]azetidin-3-yl}-1H-1,2,3-triazole-4-carboxamide]",30.7 µM
21,"COCCn1cc(CN2CC(NC(=O)c3cn(C4CC4)nn3)C2)cn1 [compound 717, 1-cyclopropyl-N-(1-{[1-(2-methoxyethyl)-1H-pyrazol-4-yl]methyl}azetidin-3-yl)-1H-1,2,3-triazole-4-carboxamide]",3.06 µM
22,"Cc1nc(C)c(C(C)N2CC(NC(=O)c3cn(C4CC4)nn3)C2)s1 (stereo not shown) [compound 718, 1-cyclopropyl-N-{1-[1-(dimethyl-1,3-thiazol-5-yl)ethyl]azetidin-3-yl}-1H-1,2,3-triazole-4-carboxamide]",2.95 µM
23,"O=C(NC1CN(C2CCc3cc(Cl)ccc32)C1)c1cn(C2CC2)nn1 (stereo not shown) [compound 719, N-[1-(5-chloro-2,3-dihydro-1H-inden-1-yl)azetidin-3-yl]-1-cyclopropyl-1H-1,2,3-triazole-4-carboxamide]",4.41 µM
24,"C[C@H](c1ccccc1)N1CC(NC(=O)c2cn(C3CC3)nn2)C1 [compound 720, 1-cyclopropyl-N-{1-[(1R)-1-phenylethyl]azetidin-3-yl}-1H-1,2,3-triazole-4-carboxamide]",23.3 µM
25,"CC(C)N1CC(NC(=O)c2cn(CCN)nn2)C1 [compound 723, 1-(2-aminoethyl)-N-[1-(propan-2-yl)azetidin-3-yl]-1H-1,2,3-triazole-4-carboxamide]",> 50 µM
26,"COc1ccnc(C(C)N2CC(NC(=O)c3cn(C4CC4)nn3)C2)c1 (stereo not shown) [compound 724, 1-cyclopropyl-N-{1-[1-(4-methoxypyridin-2-yl)ethyl]azetidin-3-yl}-1H-1,2,3-triazole-4-carboxamide]",1.27 µM
27,"COc1cccnc1C(C)N1CC(NC(=O)c2cn(C3CC3)nn2)C1 (stereo not shown) [compound 725, 1-cyclopropyl-N-{1-[1-(3-methoxypyridin-2-yl)ethyl]azetidin-3-yl}-1H-1,2,3-triazole-4-carboxamide]",1.02 µM
28,"CNC(=O)c1cccc(CN2CC(NC(=O)c3cn(C4CC4)nn3)C2)c1 [compound 726, 1-cyclopropyl-N-(1-{[3-(methylcarbamoyl)phenyl]methyl}azetidin-3-yl)-1H-1,2,3-triazole-4-carboxamide]",10.7 µM
